{"source": "BindingDB's records for doi:10.1016/j.bmcl.2008.01.038", "about": "(Inspire Pharmaceuticals, 2008)"}
{"experiment": "Antagonist activity at P2Y12 receptor assessed as platelet aggregation by washed platelet assay", "units": {"IC50": "µM"}}
{"smiles": "CCNC(=O)Nc1ncnc2c1ncn2[C@@H]1O[C@H](CNCC2CC2C(=O)OCC)[C@H]2O[C@H](/C=C/c3ccccc3)O[C@H]21", "note": "(stereo partly specified)", "IC50": 4.33}
{"smiles": "CCNC(=O)Nc1ncnc2c1ncn2[C@@H]1O[C@H](COCC(=O)O)[C@H]2O[C@H](/C=C/c3ccccc3)O[C@H]21", "IC50": 0.243}
{"smiles": "CCNC(=O)Nc1ncnc2c1ncn2[C@@H]1O[C@H](CN)[C@H]2O[C@H](/C=C/c3ccccc3)O[C@H]21", "IC50": 4.73}
{"smiles": "CCNC(=O)Nc1ncnc2c1ncn2[C@@H]1O[C@H](COCc2ccccc2C(=O)O)[C@H]2O[C@H](/C=C/c3ccccc3)O[C@H]21", "IC50": 0.04}
{"smiles": "CCNC(=O)Nc1ncnc2c1ncn2[C@@H]1O[C@H](CSCC(O)CO)[C@H]2O[C@H](/C=C/c3ccccc3)O[C@H]21", "note": "(stereo partly specified)", "IC50": 9.9}
{"smiles": "CCNC(=O)Nc1ncnc2c1ncn2[C@@H]1O[C@H](CS(=O)(=O)CC(C)O)[C@H]2O[C@H](/C=C/c3ccccc3)O[C@H]21", "note": "(stereo partly specified)", "IC50": 2.49}
{"smiles": "CCNC(=O)Nc1ncnc2c1ncn2[C@@H]1O[C@H](CCC(=O)O)[C@H]2O[C@H](/C=C/c3ccccc3)O[C@H]21", "IC50": 0.495}
{"smiles": "CCNC(=O)Nc1ncnc2c1ncn2[C@@H]1O[C@H](CNCc2ccccc2F)[C@H]2O[C@H](/C=C/c3ccccc3)O[C@H]21", "IC50": 2.55}
{"smiles": "CCNC(=O)Nc1ncnc2c1ncn2[C@@H]1O[C@H](CS(=O)(=O)CC(=O)O)[C@H]2O[C@H](/C=C/c3ccccc3)O[C@H]21", "IC50": 2.48}
{"smiles": "CCNC(=O)Nc1ncnc2c1ncn2[C@@H]1O[C@H](CNC(=O)c2ccco2)[C@H]2O[C@H](/C=C/c3ccccc3)O[C@H]21", "IC50": 4.86}
{"smiles": "CCNC(=O)Nc1ncnc2c1ncn2[C@@H]1O[C@H](CNCC(=O)O)[C@H]2O[C@H](/C=C/c3ccccc3)O[C@H]21", "IC50": 0.513}
{"smiles": "CCNC(=O)Nc1ncnc2c1ncn2[C@@H]1O[C@H](CNC(=O)CO)[C@H]2O[C@H](/C=C/c3ccccc3)O[C@H]21", "IC50": 2.95}
{"smiles": "CCNC(=O)Nc1ncnc2c1ncn2[C@@H]1O[C@H](C(=O)O)[C@H]2O[C@H](/C=C/c3ccccc3)O[C@H]21", "IC50": 0.201}
{"smiles": "CCNC(=O)Nc1ncnc2c1ncn2[C@@H]1O[C@H](COCc2cccc(C(=O)O)c2)[C@H]2O[C@H](/C=C/c3ccccc3)O[C@H]21", "IC50": 0.616}
{"smiles": "CCNC(=O)Nc1ncnc2c1ncn2[C@@H]1O[C@H](CNCC2CC2C(=O)O)[C@H]2O[C@H](/C=C/c3ccccc3)O[C@H]21", "note": "(stereo partly specified)", "IC50": 2.7}
{"smiles": "CCNC(=O)Nc1ncnc2c1ncn2[C@@H]1O[C@H](CNC(=O)c2cccs2)[C@H]2O[C@H](/C=C/c3ccccc3)O[C@H]21", "IC50": 2.23}
{"smiles": "CCNC(=O)Nc1ncnc2c1ncn2[C@@H]1O[C@H](CSCC(=O)O)[C@H]2O[C@H](/C=C/c3ccccc3)O[C@H]21", "IC50": 3.8}
{"smiles": "CCNC(=O)Nc1ncnc2c1ncn2[C@@H]1O[C@H](CN(CC2CC2C(=O)O)CC2CC2C(=O)O)[C@H]2O[C@H](/C=C/c3ccccc3)O[C@H]21", "note": "(stereo partly specified)", "IC50": 0.58}
{"smiles": "CCNC(=O)Nc1ncnc2c1ncn2[C@@H]1O[C@H](CC(=O)O)[C@H]2O[C@H](/C=C/c3ccccc3)O[C@H]21", "IC50": 0.663}
{"smiles": "CCNC(=O)Nc1ncnc2c1ncn2[C@@H]1O[C@H](CO)[C@H]2O[C@H](/C=C/c3ccccc3)O[C@H]21", "IC50": 1.27}
{"smiles": "CCNC(=O)Nc1ncnc2c1ncn2[C@@H]1O[C@H](COCc2ccc(C(=O)O)cc2)[C@H]2O[C@H](/C=C/c3ccccc3)O[C@H]21", "IC50": 1.31}
